What was measured:
Assay type in all cases: in vivo
Bemisia argentifolii = assay: Silverleaf whitefly (Bemisia argentifolii) adults, sprayed cotton plant test; details: 72 h, 3 days after treatment, read-out: mortality in comparison with untreated controls
Description: B.3 Silverleaf whitefly (Bemisia argentifolii) (adults)
(§1) The active compounds were formulated in cyclohexanone as a 10,000 ppm solution supplied in tubes. The tubes were inserted into an automated electrostatic sprayer equipped with an atomizing nozzle and they served as stock solutions for which lower dilutions were made in 50% acetone:50% water (v/v). A non-ionic surfactant (Kinetic®) was included in the solution at a volume of 0.01% (v/v).
Cotton plants at the cotyledon stage (one plant per pot) were sprayed by an automated electrostatic plant sprayer equipped with an atomizing spray nozzle. The plants were dried in the sprayer fume hood and then removed from the sprayer. Each pot was placed into a plastic cup and about 10 to 12 whitefly adults (approximately 3-5 days old) were introduced. The insects were collected using an aspirator and a nontoxic Tygon® tubing connected to a barrier pipette tip. The tip, containing the collected insects, was then gently inserted into the soil containing the treated plant, allowing insects to crawl out of the tip to reach the foliage for feeding. Cups were covered with a reusable screened lid. […] Mortality was assessed 3 days after treatment, compared to untreated control plants.

Spodoptera eridania = assay: Southern armyworm (Spodoptera eridania) 2nd instar larvae, sprayed lima bean plant test; details: 96 h, 4 days after treatment, read-out: mortality in comparison with untreated controls
Procedure: B.4. Southern armyworm (Spodoptera eridania), 2nd instar larvae
as §1, with “nonionic” for “non-ionic”
Lima bean plants (variety Sieva) were grown 2 plants to a pot and selected for treatment at the 1st true leaf stage. Test solutions were sprayed onto the foliage by an automated electrostatic plant sprayer equipped with an atomizing spray nozzle. The plants were dried in the sprayer fume hood and then removed from the sprayer. Each pot was placed into perforated plastic bags with a zip closure. About 10 to 11 armyworm larvae were placed into the bag and the bags zipped closed. Test plants were maintained in a growth room at about 25° C. and about 20-40% relative humidity for 4 days, avoiding direct exposure to fluorescent light (24 hour photoperiod) to prevent trapping of heat inside the bags. Mortality and reduced feeding were assessed 4 days after treatment, compared to untreated control plants.

Anthonomus grandis = assay: Boll weevil (Anthonomus grandis) microtiter plate diet test, egg and larval mortality; details: 120 h, egg and larval mortality after 5 days, read-out: mortality in comparison with untreated controls
Procedure: B.1. Boll weevil (Anthonomus grandis)
For evaluating control of boll weevil (Anthonomus grandis) the test unit consisted of 96-wellmicrotiter plates containing an insect diet and 5-10 A. grandis eggs.
The compounds were formulated using a solution containing 75% v/v water and 25% v/v DMSO. Different concentrations of formulated compounds were sprayed onto the insect diet at 5 μl, using a custom-built micro atomizer, at two replications.
After application, microtiter plates were incubated at about 25+1° C. and about 75+5% relative humidity for 5 days. Egg and larval mortality was then visually assessed.

Plutella xylostella = assay: Diamond back moth (Plutella xylostella) cabbage leaf dip test, larval mortality; details: foliar, 3rd instar larvae, 72 hours after treatment, read-out: mortality in comparison with untreated controls
Procedure: B.2. Diamond back moth (Plutella xylostella)
The active compound is dissolved at the desired concentration in a mixture of 1:1 (vol:vol) distilled water: acetone. Surfactant (Alkamuls® EL 620) is added at a rate of 0.1% (vol/vol). The test solution is prepared at the day of use.
Leaves of cabbage were dipped in test solution and air-dried. Treated leaves were placed in petri dish enlined with moist filter paper and inoculated with ten 3rd instar larvae. Mortality was recorded 72 hours after treatment. Feeding damages were also recorded using a scale of 0-100%.

CO/N=C(\C)CC1CSc2n(C)c(=O)c(-c3ccccc3)c([O-])[n+]21 (stereo not shown) [C-1, 3-[(2E)-2-methoxyiminopropyl]-8-methyl-7-oxo-6-phenyl-2,3-dihydrothiazolo[3,2-a]pyrimidin-4-ium-5-olate]
> 75%: mortality at 500 ppm (Bemisia argentifolii) | mortality at 500 ppm (Spodoptera eridania) | mortality at 800 ppm (Anthonomus grandis) | mortality at 500 ppm (Plutella xylostella)

From patent US20230031024A1, “SUBSTITUTED PYRIMIDINIUM COMPOUNDS FOR COMBATING ANIMAL PESTS” (BASF SE, priority 2018, published 2023)
